Reference: patent US20110280939A1 (EVEREST PHARM. INDUSTRIAL CO., LTD., priority 2007, published 2011)
Structures can show the parent of a compound that is named as a salt.

Experiment: average excretion half time in human body

SMILES: CN[C@@H](C)[C@@H](O)c1ccccc1 [pseudoephedrine hydrochloride]
- average excretion half time: 4.76 ± 0.44 h
